Source: ChEMBL document CHEMBL3400001, “Tricyclic 1,5-naphthyridinone oxabicyclooctane-linked novel bacterial topoisomerase inhibitors as broad-spectrum antibacterial agents-SAR of left-hand-side moiety (Part-2)” (Bioorg Med Chem Lett, 2015)
In brackets after ≈: the same amount, converted by molar mass.

Experiments:
Streptococcus pneumoniae = experiment: Antimicrobial activity against Streptococcus pneumoniae IID554 by micro broth dilution or agar based method; type: functional
Pseudomonas aeruginosa = experiment: Antimicrobial activity against Pseudomonas aeruginosa PAO1 by micro broth dilution or agar based method; type: functional
Enterococcus faecalis = experiment: Antimicrobial activity against Enterococcus faecalis ATCC 29212 MB by micro broth dilution or agar based method; type: functional
Acinetobacter baumannii = experiment: Antimicrobial activity against Acinetobacter baumannii IID876 by micro broth dilution or agar based method; type: functional
Escherichia coli = experiment: Antimicrobial activity against Escherichia coli ATCC 25922 by micro broth dilution or agar based method; type: functional
Staphylococcus aureus [1] = experiment: Ratio of MIC for quinolone-resistant Staphylococcus aureus MS5935 to MIC for quinolone-[…]; type: functional
Staphylococcus aureus [2] = experiment: Antimicrobial activity against Staphylococcus aureus Smith by micro broth dilution or agar based method; type: functional
Enterococcus faecium = experiment: Antimicrobial activity against vancomycin-resistant Enterococcus faecium A2373 expressing VanA by micro broth dilution or agar based method; type: functional
[3] = target: T1, Voltage-gated inwardly rectifying potassium channel KCNH2 (Homo sapiens, UniProt Q12809); experiment: Inhibition of human ERG by MK499 binding assay
T1 sequence (Q12809 whole entry): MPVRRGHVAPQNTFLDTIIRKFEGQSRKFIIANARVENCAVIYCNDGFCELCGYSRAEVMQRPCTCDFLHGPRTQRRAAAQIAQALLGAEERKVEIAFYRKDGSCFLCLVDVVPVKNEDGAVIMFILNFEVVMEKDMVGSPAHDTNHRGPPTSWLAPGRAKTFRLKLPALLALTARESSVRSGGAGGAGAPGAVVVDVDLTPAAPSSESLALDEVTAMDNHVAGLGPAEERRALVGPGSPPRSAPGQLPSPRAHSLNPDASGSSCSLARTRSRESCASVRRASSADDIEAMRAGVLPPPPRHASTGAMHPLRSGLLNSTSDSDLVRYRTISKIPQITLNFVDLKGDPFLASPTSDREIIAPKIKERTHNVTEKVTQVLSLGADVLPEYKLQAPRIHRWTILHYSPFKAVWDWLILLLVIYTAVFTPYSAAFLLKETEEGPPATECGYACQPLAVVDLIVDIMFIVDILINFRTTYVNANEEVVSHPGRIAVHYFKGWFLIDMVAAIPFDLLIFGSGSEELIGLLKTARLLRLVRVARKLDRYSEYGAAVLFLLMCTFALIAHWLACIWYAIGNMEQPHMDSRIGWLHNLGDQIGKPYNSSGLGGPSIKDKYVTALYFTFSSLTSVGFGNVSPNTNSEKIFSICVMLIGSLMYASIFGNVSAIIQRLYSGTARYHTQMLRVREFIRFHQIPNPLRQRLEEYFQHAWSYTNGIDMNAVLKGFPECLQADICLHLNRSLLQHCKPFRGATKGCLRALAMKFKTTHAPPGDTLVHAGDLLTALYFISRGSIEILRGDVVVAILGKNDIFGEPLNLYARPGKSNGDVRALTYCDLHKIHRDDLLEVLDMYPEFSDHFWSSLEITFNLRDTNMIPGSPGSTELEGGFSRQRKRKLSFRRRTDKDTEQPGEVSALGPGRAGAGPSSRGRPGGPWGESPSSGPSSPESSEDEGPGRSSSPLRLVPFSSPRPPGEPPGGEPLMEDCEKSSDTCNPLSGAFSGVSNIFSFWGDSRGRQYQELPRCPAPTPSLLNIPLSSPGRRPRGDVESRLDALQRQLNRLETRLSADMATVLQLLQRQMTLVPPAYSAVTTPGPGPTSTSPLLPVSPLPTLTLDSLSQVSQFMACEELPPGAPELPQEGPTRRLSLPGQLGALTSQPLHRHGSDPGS

[4] = target: T1, Voltage-gated inwardly rectifying potassium channel KCNH2; experiment: Inhibition of human ERG expressed in CHO cells by Patch express assay; type: cell-based
Moraxella catarrhalis = experiment: Antimicrobial activity against Moraxella catarrhalis ATCC 25238 by micro broth dilution or agar based method; type: functional
Haemophilus influenzae = experiment: Antimicrobial activity against Haemophilus influenzae ATCC 49247 by micro broth dilution or agar based method; type: functional
[5] = Oral bioavailability in C57BL/6 mouse at 2 mg/kg; type: ADME, organism-based; conditions: in vivo
[6] = Plasma clearance in C57BL/6 mouse at 1 mg/kg, iv or 2 mg/kg, po; type: ADME, organism-based
[7] = AUC in C57BL/6 mouse at 1 mg/kg, iv; type: ADME, organism-based; set-up: dose 1 mg/kg, route intravenous; conditions: plasma
[8] = Volume of distribution at steady state in C57BL/6 mouse at 1 mg/kg, iv or 2 mg/kg, po; type: ADME, organism-based; conditions: in vivo, read-out: Vdss
Staphylococcus aureus [9] = experiment: Antimicrobial activity against Staphylococcus aureus infected in intravenously dosed mouse model of bacteremia; type: functional; conditions: iv
Staphylococcus aureus [10] = experiment: Antimicrobial activity against Staphylococcus aureus infected in orally dosed mouse model of bacteremia; type: functional; conditions: po
[11] = Half life in C57BL/6 mouse at 1 mg/kg, iv or 2 mg/kg, po; type: ADME, organism-based; conditions: in vivo
[12] = Streptococcus pneumoniae, IID554, read-out: MIC
[13] = Pseudomonas aeruginosa, PAO1, read-out: MIC
[14] = Enterococcus faecalis, ATCC 29212 MB, read-out: MIC
[15] = Acinetobacter baumannii, IID876, read-out: MIC
[16] = Escherichia coli, ATCC 25922, read-out: MIC
[17] = Staphylococcus aureus, Smith, read-out: MIC
[18] = Enterococcus faecium, A2373, read-out: MIC

With `O=C1COc2ccc(CNC34CCC(C[C@]5(O)Cn6c(=O)ccc7ncc(Cl)c5c76)(CC3)OC4)nc2N1` the MIC (Streptococcus pneumoniae; [12]) was 1 µg/mL (≈ 1.91 µM), the MIC (Pseudomonas aeruginosa; [13]) was 32 µg/mL (≈ 61.1 µM) and the MIC (Enterococcus faecalis; [14]) was 4 µg/mL (≈ 7.63 µM). The MIC (Acinetobacter baumannii; [15]) was 8 µg/mL (≈ 15.3 µM), the MIC (Escherichia coli; [16]) was 8 µg/mL (≈ 15.3 µM) and the Ratio (Staphylococcus aureus [1]) was <4. It also gave an MIC (Staphylococcus aureus [2]; [17]) of 0.5 µg/mL (≈ 0.954 µM), an MIC (Enterococcus faecium; [18]) of 8 µg/mL (≈ 15.3 µM) and an IC50 [3] of 53.3 µM.
For `O=C1COc2ccc(CNC34CCC(C[C@@]5(O)Cn6c(=O)ccc7ncc(Cl)c5c76)(CC3)OC4)nc2N1`, the MIC (Streptococcus pneumoniae; [12]) was 4 µg/mL (≈ 7.63 µM), the MIC (Pseudomonas aeruginosa; [13]) was 32 µg/mL (≈ 61.1 µM) and the MIC (Enterococcus faecalis; [14]) was 16 µg/mL (≈ 30.5 µM). The MIC (Acinetobacter baumannii; [15]) was 32 µg/mL (≈ 61.1 µM), the MIC (Escherichia coli; [16]) was 32 µg/mL (≈ 61.1 µM) and the Ratio (Staphylococcus aureus [1]) was <4. The MIC (Staphylococcus aureus [2]; [17]) was 4 µg/mL (≈ 7.63 µM), the MIC (Enterococcus faecium; [18]) was 32 µg/mL (≈ 61.1 µM) and the IC50 [3] was > 60 µM.
`O=C1COc2ccc(CNC34CCC(CC5Cn6c(=O)ccc7ncc(F)c5c76)(CC3)OC4)nc2N1` (stereo in doubt; 10) gave an IC50 [4] of 21.6 µM, an MIC (Streptococcus pneumoniae) of 0.5 µg/mL (≈ 1.02 µM) and an MIC (Pseudomonas aeruginosa) of 16 µg/mL (≈ 32.6 µM). It also gave an MIC (Enterococcus faecalis) of 2 µg/mL (≈ 4.07 µM), an MIC (Acinetobacter baumannii) of 8 µg/mL (≈ 16.3 µM) and an MIC (Escherichia coli) of 2 µg/mL (≈ 4.07 µM). The MIC (Staphylococcus aureus [2]) was 0.5 µg/mL (≈ 1.02 µM), the MIC (Enterococcus faecium) was 4 µg/mL (≈ 8.14 µM) and the IC50 [3] was 12.3 µM.
In the case of `O=C1COc2ccc(CNC34CCC(CC5Cn6c(=O)ccc7ncc(F)c5c76)(CC3)OC4)nc2N1` (racemic), the IC50 [4] is reported as 30 µM, the MIC (Streptococcus pneumoniae; [12]) is reported as 0.25 µg/mL (≈ 0.509 µM) and the MIC (Pseudomonas aeruginosa) is reported as 8 µg/mL (≈ 16.3 µM). It also gave an MIC (Escherichia coli) of 1 µg/mL (≈ 2.03 µM), an MIC (Staphylococcus aureus [2]) of 0.12 µg/mL (≈ 0.244 µM) and an IC50 [3] of 23 µM.
Work on `O=C1COc2ccc(CNC34CCC(C[C@@]5(O)Cn6c(=O)c(F)cc7ncc(F)c5c76)(CC3)OC4)nc2N1` yielded an MIC (Streptococcus pneumoniae; [12]) of 4 µg/mL (≈ 7.61 µM), an MIC (Moraxella catarrhalis) of 1 µg/mL (≈ 1.9 µM) and an MIC (Pseudomonas aeruginosa; [13]) of 32 µg/mL (≈ 60.9 µM). The MIC (Enterococcus faecalis; [14]) was 16 µg/mL (≈ 30.4 µM), the MIC (Acinetobacter baumannii; [15]) was 32 µg/mL (≈ 60.9 µM) and the MIC (Escherichia coli; [16]) was 16 µg/mL (≈ 30.4 µM). The MIC (Haemophilus influenzae) was 8 µg/mL (≈ 15.2 µM), the Ratio (Staphylococcus aureus [1]) was <4 and the MIC (Staphylococcus aureus [2]; [17]) was 4 µg/mL (≈ 7.61 µM). The MIC (Enterococcus faecium; [18]) was 32 µg/mL (≈ 60.9 µM) and the IC50 [3] was > 60 µM.
For `CO[C@@]1(CC23CCC(NCc4ccc5c(n4)NC(=O)CO5)(CC2)CO3)Cn2c(=O)ccc3ncc(F)c1c32`, the MIC (Streptococcus pneumoniae; [12]) was 2 µg/mL (≈ 3.83 µM), the MIC (Pseudomonas aeruginosa; [13]) was 32 µg/mL (≈ 61.4 µM) and the MIC (Enterococcus faecalis; [14]) was 8 µg/mL (≈ 15.3 µM). The MIC (Acinetobacter baumannii; [15]) was 16 µg/mL (≈ 30.7 µM), the MIC (Escherichia coli; [16]) was 32 µg/mL (≈ 61.4 µM) and the Ratio (Staphylococcus aureus [1]) was <4. The MIC (Staphylococcus aureus [2]; [17]) was 4 µg/mL (≈ 7.67 µM), the MIC (Enterococcus faecium; [18]) was 32 µg/mL (≈ 61.4 µM) and the IC50 [3] was 7.3 µM.
`COc1cnc2ccc(=O)n3c2c1[C@@](O)(CC12CCC(NCc4ccc5c(n4)NC(=O)CO5)(CC1)CO2)C3` showed an MIC (Streptococcus pneumoniae; [12]) of 32 µg/mL (≈ 61.6 µM), an MIC (Pseudomonas aeruginosa; [13]) of 32 µg/mL (≈ 61.6 µM) and an MIC (Enterococcus faecalis; [14]) of 32 µg/mL (≈ 61.6 µM). It also gave an MIC (Acinetobacter baumannii; [15]) of 32 µg/mL (≈ 61.6 µM), an MIC (Escherichia coli; [16]) of 32 µg/mL (≈ 61.6 µM) and an MIC (Staphylococcus aureus [2]; [17]) of 8 µg/mL (≈ 15.4 µM). For the same compound, the MIC (Enterococcus faecium; [18]) was 32 µg/mL (≈ 61.6 µM).
Compound `O=C1COc2ccc(CNC34CCC(C[C@@]5(O)CN6C(=O)CCc7ncc(F)c5c76)(CC3)OC4)nc2N1` has an MIC (Streptococcus pneumoniae; [12]) of 32 µg/mL (≈ 62.8 µM), an MIC (Pseudomonas aeruginosa; [13]) of 32 µg/mL (≈ 62.8 µM) and an MIC (Enterococcus faecalis; [14]) of 32 µg/mL (≈ 62.8 µM). For the same compound, the MIC (Acinetobacter baumannii; [15]) was 32 µg/mL (≈ 62.8 µM), the MIC (Escherichia coli; [16]) was 32 µg/mL (≈ 62.8 µM) and the Ratio (Staphylococcus aureus [1]) was <4. The MIC (Staphylococcus aureus [2]; [17]) was 8 µg/mL (≈ 15.7 µM), the MIC (Enterococcus faecium; [18]) was 32 µg/mL (≈ 62.8 µM) and the IC50 [3] was > 60 µM.
With `O=C1COc2ccc(CNC34CCC(C[C@]5(O)Cn6c(=O)ccc7ncc(F)c5c76)(CC3)OC4)nc2N1` the bioavailability [5] was 40%, the clearance [6] was 65 mL/min/kg and the AUC [7] was 0.45 µM·h. The MIC (Streptococcus pneumoniae; [12]) was 0.25 µg/mL (≈ 0.493 µM), the MIC (Moraxella catarrhalis) was 0.25 µg/mL (≈ 0.493 µM) and the MIC (Pseudomonas aeruginosa; [13]) was 16 µg/mL (≈ 31.5 µM). It also gave a Vd [8] of 11.8 L/kg, an MIC (Enterococcus faecalis; [14]) of 4 µg/mL (≈ 7.88 µM) and an MIC (Acinetobacter baumannii; [15]) of 2 µg/mL (≈ 3.94 µM). The MIC (Escherichia coli; [16]) was 4 µg/mL (≈ 7.88 µM), the ED50 (Staphylococcus aureus [9]) was < 3.2 mg/kg and the ED50 (Staphylococcus aureus [10]) was 27 mg/kg. The MIC (Haemophilus influenzae) was 1 µg/mL (≈ 1.97 µM), the MIC (Staphylococcus aureus [2]; [17]) was 0.25 µg/mL (≈ 0.493 µM) and the half-life [11] was 4 h. The MIC (Enterococcus faecium; [18]) was 8 µg/mL (≈ 15.8 µM).
`O=C1COc2ccc(CNC34CCC(C[C@]5(O)Cn6c(=O)ccc7nc(Cl)c(F)c5c76)(CC3)OC4)nc2N1` showed an MIC (Streptococcus pneumoniae; [12]) of 8 µg/mL (≈ 14.8 µM), an MIC (Moraxella catarrhalis) of 4 µg/mL (≈ 7.38 µM) and an MIC (Pseudomonas aeruginosa; [13]) of 32 µg/mL (≈ 59 µM). The MIC (Enterococcus faecalis; [14]) was 16 µg/mL (≈ 29.5 µM), the MIC (Acinetobacter baumannii; [15]) was 32 µg/mL (≈ 59 µM) and the MIC (Escherichia coli; [16]) was 32 µg/mL (≈ 59 µM). For the same compound, the MIC (Staphylococcus aureus [2]; [17]) was 4 µg/mL (≈ 7.38 µM) and the MIC (Enterococcus faecium; [18]) was 32 µg/mL (≈ 59 µM).
Work on `Cc1cc(=O)n2c3c(c(F)cnc13)[C@@](O)(CC13CCC(NCc4ccc5c(n4)NC(=O)CO5)(CC1)CO3)C2` yielded an MIC (Streptococcus pneumoniae; [12]) of 8 µg/mL (≈ 15.3 µM), an MIC (Moraxella catarrhalis) of 2 µg/mL (≈ 3.83 µM) and an MIC (Pseudomonas aeruginosa; [13]) of 32 µg/mL (≈ 61.4 µM). The MIC (Enterococcus faecalis; [14]) was 16 µg/mL (≈ 30.7 µM), the MIC (Acinetobacter baumannii; [15]) was 2 µg/mL (≈ 3.83 µM) and the MIC (Escherichia coli; [16]) was 32 µg/mL (≈ 61.4 µM). For the same compound, the MIC (Haemophilus influenzae) was 16 µg/mL (≈ 30.7 µM), the Ratio (Staphylococcus aureus [1]) was <4 and the MIC (Staphylococcus aureus [2]; [17]) was 8 µg/mL (≈ 15.3 µM). The MIC (Enterococcus faecium; [18]) was 32 µg/mL (≈ 61.4 µM) and the IC50 [3] was > 60 µM.
